Assay results published in patent US20080220497A1, “Modulation of protein functionalities” (priority 2003, published 2008).
Values belong to the compound of their own block, whether it stands above or below them.

Key:
[1] = target: p38-alpha kinase (Homo sapiens, UniProt Q16539); conditions: time-dependent if IC50 values decrease with reaction time (more than two-fold in four hours)
Method: This dilution can be done automatically on a Tecan (or similar) robotic workstation or performed manually. • 3. […] This step can be performed automatically on a Tecan (or similar) robotic workstation or performed manually. • 4. Incubate at 30° C. or room temp for 2 h, depending on protein stability. • 5. Read at emission wavelength 420 nm upon excitation at 340 nm.

[2] = target: T1, c-Abl kinase (Homo sapiens, UniProt P00519); assay: Fluorescence affinity assay for Abl kinase (PD 166326 fluoroprobe); type: binding; conditions: read-out: EC50 for accelerating the binding of fluoroprobe PD 166326; c-Abl kinase; early time-point binding
T1 construct: other: c-Abl kinase
Method: (§1) Tris buffer: 90 mM Tris-HCl buffer, pH 7.5, containing 0.2% octyl-glucoside • 4. […] Polarstar Optima plate reader (BMG) or equivalent
(§2) B. Procedure: • 1. Make Solution A containing 80 nM Abl in the Tris buffer • 2. Serially dilute test compounds in Solution A (50 uL per well) • 3. Incubate the plate at room temp for 0.5 h • 4.
(§3) Abl kinase was preincubated with test compounds for […] in the absence of fluoroprobe. […] By comparison of RFU (relative fluorescence units) values with that of a control (in the absence of small molecule modulators), the percentage of modulation at each concentration of the small molecules was calculated.

[3] = test system: Abl kinase; assay: Thermal denaturation of Abl kinase; type: binding, human; conditions: 1 μM Abl kinase, 20 μM small molecule
Method: (§4) Denaturation was monitored by measuring the absolute absorbance of the solutions at an appropriate wavelength (typically 230 nm and 240 nm) as a function of temperature. As the protein became denatured, additional UV absorbing functional groups became exposed causing an increase in absorbance at the melting temperature. […] The thermal data were collected using Agilent spectrophotometers and ChemStation UV/Vis Thermal Denaturation software.
5 μL of 40 μM Abl kinase was mixed with 195 μL of the small molecule/buffer solution. The final concentration was 1 μM Abl kinase and 20 μM small molecule. The final protein and buffer solution was mixed gently using a pipetter to minimize denaturing due to over aggressive mixing. The final solution was transferred to a 50 μL cuvette for analysis.
Test solutions containing only the Abl kinase were prepared as follows: 5 μL of 40 μM Abl kinase was mixed with 195 μL Buffer to give a concentration of 1 μM Abl kinase in Buffer. The protein and buffer solution was mixed gently using a pipetter to minimize denaturing due to over aggressive mixing. The final solution was transferred to a 50 μL cuvette for analysis.
(§5) A first derivative calculation with data smoothing was applied to the resulting data to report the point of inflection as the melting temperature.

[4] = target: T2, V599E Braf kinase (Homo sapiens, UniProt P15056, V600E); assay: Thermal denaturation of oncogenic V599E Braf kinase; type: binding; conditions: 1.4 μM V599E Braf kinase, 20 μM small molecule; read-out: ΔTm (° C.) relative to unphosphorylated B-Raf(V599E)
T2 construct: 6×His-tag (N); made in house; host or cells: Sf9 insect cells (baculovirus)
Method: as §4
(§6) The final solution was transferred to a 50 μL cuvette for analysis.
as §6, §5

[5] = test system: c-Abl kinase; assay: Fluorescence affinity assay for Abl kinase (PD 166326 fluoroprobe); type: binding, human; conditions: 100 nM PD 166326, 40 nM Abl kinase
Method: as §1, §2, §3

[6] = target: T3, doubly phosphorylated p38-alpha kinase (Homo sapiens, UniProt Q16539); assay: Fluorescence affinity assay, doubly phosphorylated p38-alpha kinase; type: binding; conditions: ~24 nM enzyme; 1.0 uM SKF-86002; read-out: FP IC50 P-p38-alpha
T3 construct: 6xHis ([…], seen only in the listing) (C); purchased Roche Applied Diagnostics
Description: (§7) This fluorescence affinity assay is utilized in an affinity-based screen to identify small molecules which bind into switch control pockets of protein kinases. Binding of small molecule switch inhibitors displaces the switch control ligand phenylalanine of the DFG motif into an orientation which sterically blocks the ATP pocket. Such inhibitor-induced blockade of the ATP pocket is registered as an inhibition of binding of the fluoroprobe into the ATP pocket.
(§8) • 1. p38-alpha kinase • a. […] Polarstar Optima plate reader (BMG)
• 1. […] This dilution can be done automatically on a Tecan (or similar) robotic workstation or performed manually. • 3. Mix Solution A with the diluted compound solutions following Step 3 of Table 22. This step can be performed automatically on a Tecan (or similar) robotic workstation or performed manually. • 4. Incubate at 30° C. or room temp for 2 h, depending on protein stability. • 5. Read at emission wavelength 420 nm upon excitation at 340 nm. […]
(§9) A ratio greater than 1.0 indicates a preference for inhibiting the unphosphorylated form of p38-alpha kinase relative to the doubly phosphorylated form. A ratio less than 1.0 indicates a preference for inhibiting the doubly phosphorylated form of p38-alpha kinase relative to the unphosphorylated form.

[7] = target: T4, unphosphorylated p38-alpha kinase (Homo sapiens, UniProt Q16539, DEL261-261); assay: Fluorescence affinity assay, unphosphorylated p38-alpha kinase; type: binding
T4 construct: 48 (6×His-TEV tag, full length); 6×His-TEV tag (N); purchased Decode Genetics, Inc; host or cells: E. coli
Description: as §7, §8
• 1. […] This dilution can be done automatically on a Tecan (or similar) robotic workstation or performed manually. • 3. Mix Solution A with the diluted compound solutions following Step 3 of Table 22. This step can be performed automatically on a Tecan (or similar) robotic workstation or performed manually. • 4. Incubate at 30° C. or room temp for 2 h, depending on protein stability. • 5. Read at emission wavelength 420 nm upon excitation at 340 nm.
The reaction was initiated by addition of the enzyme. […] By comparison of RFU (relative fluorescence units) values with that of a control (in the absence of small molecule modulators), the percentage of inhibition at each concentration of the small molecules was calculated. IC50 values for the small molecule modulators were calculated from the % inhibition values obtained at a range of concentrations of the small molecule modulators using Prism (available from GraphPad, Inc.). When time-dependent inhibition was assessed, the plate was read at multiple reaction times such as 0.5, 1, 2, 3, 4 and 6 hours. The IC50 values were calculated at each time point. An inhibition was assigned as time-dependent if the IC50 values decrease with the reaction time (more than two-fold in four hours).
as §9

[8] = target: T5, Phospho-p38-alpha kinase (Homo sapiens, UniProt Q16539); assay: Spectrophotometric assay for phospho-p38-alpha kinase; conditions: p38-alpha kinase biochemical assay
T5 construct: 6xHis ([…], seen only in the listing) (C); purchased Roche Applied Diagnostics
Method: Spectrophotometric Assay for Phospho-p38-alpha Kinase
NADH (Sigma): 5.6 mM • 5. Phosphoenol pyruvate (Sigma): 20 mM • 6. […] ATP (20 mM) • 8. […] Polarstar Optima plate reader (BMG)
IC50 determinations were performed using a serial dilution scheme to dilute inhibitor in DMSO, followed by further dilution in reaction buffer, and finally mixing with Mixture 1 (Table 29) which contains all the enzymes. The dilution procedure ensured that the test compound at various concentrations was properly dissolved into the buffer and enzyme reaction mixture.
Prepare Mixture 1 as described in Table 29 (use within 30 min) • 3. Mix the diluted compound with Mixture 1 following Step 3 of Table 28 • 4. Incubate the 384-well plate at 30° C. for 2 hours • 5. Add 1 μL of 30 mM ATP into each well and mix well • 6. Read on the microplate reader with one point every min for at least 2.5 hours at 30° C.
A linear regression was applied to data collected from t=1.5 hr to 2.5 hr to obtain the reaction rate for each data set. The data were approximately linear within this time frame. Percentage of inhibition was calculated by comparison of the rate in the presence of a compound with that of the control. IC50 values were calculated from a series of % inhibition values determined at a range of inhibitor concentrations using GraphPad Prism (version 4).

[9] = target: T3, doubly phosphorylated p38-alpha kinase; assay: Thermal denaturation of doubly phosphorylated p38-alpha kinase; type: binding; conditions: 0.5 μM p38-alpha kinase, 20 μM small molecule
Method: as §4
The final concentration was 0.5 μM p38-alpha kinase and 20 μM small molecule. The final protein and buffer solution was mixed gently using a pipetter to minimize denaturing due to over aggressive mixing. The final solution was transferred to a 50 μL cuvette for analysis.
The protein and buffer solution was mixed gently using a pipetter to minimize denaturing due to over aggressive mixing. The final solution was transferred to a 50 μL cuvette for analysis.
as §5

[10] = target: T4, unphosphorylated p38-alpha kinase; assay: Thermal denaturation of unphosphorylated p38-alpha kinase; type: binding; conditions: […] p38-alpha kinase, 15 μM small molecule
Description: as §4
The final protein and buffer solution was mixed gently using a pipetter to minimize denaturing due to over aggressive mixing. The final solution was transferred to a 50 μL cuvette for analysis.
as §6, §5

T4 sequence (Q16539 with tags, fused parts or gaps DEL261-261): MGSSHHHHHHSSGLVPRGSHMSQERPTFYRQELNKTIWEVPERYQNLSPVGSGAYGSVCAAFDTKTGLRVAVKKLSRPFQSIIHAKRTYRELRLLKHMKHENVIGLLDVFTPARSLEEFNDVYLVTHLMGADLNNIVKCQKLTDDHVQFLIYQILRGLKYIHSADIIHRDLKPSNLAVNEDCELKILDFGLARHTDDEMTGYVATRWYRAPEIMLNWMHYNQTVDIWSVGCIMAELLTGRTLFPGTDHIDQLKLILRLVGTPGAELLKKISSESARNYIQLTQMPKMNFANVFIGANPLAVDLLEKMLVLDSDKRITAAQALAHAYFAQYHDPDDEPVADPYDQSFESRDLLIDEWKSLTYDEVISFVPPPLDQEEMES
T1 sequence (P00519 1-1149 isoform P00519-2): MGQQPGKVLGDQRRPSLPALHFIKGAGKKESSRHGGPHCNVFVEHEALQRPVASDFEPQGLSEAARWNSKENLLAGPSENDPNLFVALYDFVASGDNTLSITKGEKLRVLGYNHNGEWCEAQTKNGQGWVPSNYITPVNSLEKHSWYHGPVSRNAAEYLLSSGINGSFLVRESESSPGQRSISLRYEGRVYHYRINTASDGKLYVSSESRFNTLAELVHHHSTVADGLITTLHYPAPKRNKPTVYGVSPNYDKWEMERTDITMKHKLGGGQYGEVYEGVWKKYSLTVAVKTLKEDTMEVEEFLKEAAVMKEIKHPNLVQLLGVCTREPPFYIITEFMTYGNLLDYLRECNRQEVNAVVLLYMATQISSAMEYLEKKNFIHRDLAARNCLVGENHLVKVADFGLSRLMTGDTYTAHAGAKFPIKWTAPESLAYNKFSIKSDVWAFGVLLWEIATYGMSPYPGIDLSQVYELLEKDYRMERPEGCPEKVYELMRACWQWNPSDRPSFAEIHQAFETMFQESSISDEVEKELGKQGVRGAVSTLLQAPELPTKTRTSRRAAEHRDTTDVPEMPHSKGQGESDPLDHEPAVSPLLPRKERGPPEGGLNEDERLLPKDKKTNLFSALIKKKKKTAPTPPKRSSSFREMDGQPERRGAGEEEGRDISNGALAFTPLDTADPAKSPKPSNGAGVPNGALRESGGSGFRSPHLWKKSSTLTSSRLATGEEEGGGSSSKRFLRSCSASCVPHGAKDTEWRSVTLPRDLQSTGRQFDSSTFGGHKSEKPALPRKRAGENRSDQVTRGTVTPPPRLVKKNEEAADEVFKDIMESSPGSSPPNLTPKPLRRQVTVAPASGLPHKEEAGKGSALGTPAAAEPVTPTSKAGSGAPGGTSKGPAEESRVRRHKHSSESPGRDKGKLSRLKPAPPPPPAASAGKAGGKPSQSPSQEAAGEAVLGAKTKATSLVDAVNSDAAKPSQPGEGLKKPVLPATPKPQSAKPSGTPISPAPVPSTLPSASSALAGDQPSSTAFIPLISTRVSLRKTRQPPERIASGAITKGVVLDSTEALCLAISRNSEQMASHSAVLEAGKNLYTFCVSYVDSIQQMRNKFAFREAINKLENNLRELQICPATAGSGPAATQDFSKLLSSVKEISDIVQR
T3 sequence (Q16539 with tags, fused parts or gaps): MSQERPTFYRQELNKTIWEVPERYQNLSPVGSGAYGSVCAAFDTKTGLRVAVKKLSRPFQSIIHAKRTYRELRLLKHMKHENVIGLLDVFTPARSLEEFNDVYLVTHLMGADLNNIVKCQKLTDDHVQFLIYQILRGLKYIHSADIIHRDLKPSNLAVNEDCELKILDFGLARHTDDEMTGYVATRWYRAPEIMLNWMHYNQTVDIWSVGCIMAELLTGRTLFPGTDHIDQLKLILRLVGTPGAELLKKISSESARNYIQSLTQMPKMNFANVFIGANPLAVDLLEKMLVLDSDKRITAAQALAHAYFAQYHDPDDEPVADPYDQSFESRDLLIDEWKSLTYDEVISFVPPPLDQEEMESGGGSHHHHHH
T5 sequence (Q16539 with tags, fused parts or gaps): as above
T2 sequence (P15056 with tags, fused parts or gaps V600E): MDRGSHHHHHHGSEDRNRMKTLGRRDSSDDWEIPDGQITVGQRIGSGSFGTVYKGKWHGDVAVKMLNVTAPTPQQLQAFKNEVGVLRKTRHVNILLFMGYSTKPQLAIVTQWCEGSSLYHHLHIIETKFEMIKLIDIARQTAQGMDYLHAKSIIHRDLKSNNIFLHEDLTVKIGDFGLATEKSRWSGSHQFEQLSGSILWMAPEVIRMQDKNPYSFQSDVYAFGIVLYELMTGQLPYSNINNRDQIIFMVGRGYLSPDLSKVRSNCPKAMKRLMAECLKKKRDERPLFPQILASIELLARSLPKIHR
Sequence of p38-alpha kinase (Q16539 whole entry): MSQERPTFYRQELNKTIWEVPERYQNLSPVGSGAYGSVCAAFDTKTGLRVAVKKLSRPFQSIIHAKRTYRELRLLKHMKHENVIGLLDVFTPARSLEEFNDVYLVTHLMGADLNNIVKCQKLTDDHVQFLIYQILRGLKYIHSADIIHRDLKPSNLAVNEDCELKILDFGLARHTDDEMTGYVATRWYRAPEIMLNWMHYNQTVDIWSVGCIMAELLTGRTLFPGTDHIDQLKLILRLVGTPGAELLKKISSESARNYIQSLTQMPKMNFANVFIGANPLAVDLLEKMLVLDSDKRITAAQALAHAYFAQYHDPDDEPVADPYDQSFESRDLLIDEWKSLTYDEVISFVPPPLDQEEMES

Structure (SMILES): CC(C)(C)c1cc(NC(=O)Nc2cccc3ccccc23)n(-c2ccc(CN)cc2)n1 [Example 45]
Time-dependent [1]: No

Structure (SMILES): CC(C)(C)c1cc(NC(=O)Nc2cccc(Cl)c2Cl)n(-c2ccc3c(c2)CNCC3)n1 [Example 64, 1-(3-tert-butyl-1-(1,2,3,4-tetrahydroisoquinolin-7-yl)-1H-pyrazol-5-yl)-3-(2,3-dichlorophenyl)urea]
EC50 [2]: 43 nM
ΔTm (° C.) relative to unphosphorylated Abl [3]: 2.6 °C

EC50 [2]: 81 nM
Structure (SMILES): CC(C)(C)c1cc(NC(=O)Nc2cccc(Cl)c2Cl)n(-c2ccc3c(c2)C[C@@H](C(=O)O)NC3)n1 [Example 65, (3S)-6-(3-tert-butyl-5-(3-(2,3-dichlorophenyl)ureido)-1H-pyrazol-1-yl)-1,2,3,4-tetrahydroisoquinoline-3-carboxylic acid]

Structure (SMILES): CC(C)(C)c1cc(NC(=O)Nc2cccc(Cl)c2Cl)n(-c2ccc3c(c2)CCNC3)n1 [Example 66, 1-(3-tert-butyl-1-(1,2,3,4-tetrahydroisoquinolin-6-yl)-1H-pyrazol-5-yl)-3-(2,3-dichlorophenyl)urea]
ΔTm at 20 µM [4]: 15.8 °C
EC50 [2]: 30 nM
Effect on binding of fluoroprobe PD 166326 to Abl kinase [5]: concentration-dependent acceleration of the binding of fluoroprobe PD 166326
ΔTm (° C.) relative to unphosphorylated Abl [3]: 3.2 °C

Structure (SMILES): CC(C)(C)c1cc(NC(=O)Nc2cccc3ccccc23)n(-c2ccc(CO)cc2)n1 [Example 72]
IC50 [6]: 67 nM
Ratio IC50s ([7]; doubly phosphorylated vs unphosphorylated p38-alpha, >1.0 = preference for unphosphorylated form): 1.7
IC50 ([7]; ~24 nM enzyme, 1.0 uM SKF-86002, read-out: FP IC50 U-p38-alpha): 40 nM
Competition with ATP [8]: non-competitive with ATP
ΔTm (° C.) relative to doubly phosphorylated p38 [9]: 8.1 °C
ΔTm (° C.) relative to unphosphorylated apo p38 [10]: 11.3 °C
